# Data from patent US9499705B2, “Radically polymerizable photo-curable ink jet ink composition” (Seiko Epson Corporation, priority 2013, dated 2016).
# Tests used:
# [1] = Acid dissociation constant pKa of saturated aliphatic carboxylic acids; format: physicochemical; settings: for pKa1: first acid dissociation constant; for pKa2: second acid dissociation constant
# Text: The acid dissociation constant pKa1 of the saturated aliphatic carboxylic acid is preferably 4.0 or more, more preferably 4.0 to 4.5, still more preferably 4.1 to 4.5. If the saturated aliphatic carboxylic acid is divalent or more polyvalent, the second acid dissociation constant pKa2 is preferably 5.0 or more. The acid dissociation constant pKa can be measured by, for example, titration, absorptiometry, or capillary electrophoresis.
# [2] = Redispersibility after long-time storage (rate of change in absorbance of agitated ink after one year); format: physicochemical; settings: redispersing effect of the saturated aliphatic carboxylic acid in the ink
# Procedure: Ink bags containing respective ink compositions were allowed to stand at room temperature (25° C.) with the rectangular face of the ink bag in a horizontal position for a year. […] Subsequently, the ink bag was turned upside down and was reciprocally moved 50 times in the same manner with the rectangular face of the ink gab in a horizontal position. After the ink composition in the ink bag was thus agitated, the ink composition was sampled from the upper side in the ink gab with the ink inlet facing up. Then, the absorbance of the sampled ink composition was measured with a spectrophotometer U-3300 (manufactured by Hitachi) and compared with the absorbance before the storage. […] As a larger amount of sediment settles, the density of the white pigment in the ink composition tends to be reduced, and accordingly the absorbance after storage is generally low.
structure (smiles),measurement,setting,value
O=C(O)CCCCC(=O)O [Adipic acid],pKa1,[1],4.26
same,pKa2,[1],5.03
same,Redispersion,[2],Excellent
CCCCCCCCCCCCCCCC(=O)O [Palmitic acid],pKa1,[1],4.64
same,Redispersion,[2],Good
O=C(O)CC(O)(CC(=O)O)C(=O)O [Citric acid],pKa1,[1],2.87
same,pKa2,[1],4.35
same,pKa3,[1]; third acid dissociation constant,5.69
same,Redispersion,[2],Fair
O=C(O)CCC(=O)O [Succinic acid],pKa1,[1],4
same,pKa2,[1],5.24
same,Redispersion,[2],Good
